One may read the IC50 as the concentration at which inhibition is half-maximal. A word on the Kd: it is the equilibrium constant for the complex coming apart. Usually inhibition stands for how much of the control response was suppressed.

Results on two compounds are retold here after article PMC12300041, “Tricyclic Isatin Derivatives as Anti-Inflammatory Compounds with High Kinase Binding Affinity” (Molecules, 2025).

Experiment [1] has as its system NF-κB/AP-1 transcriptional activity. In words: LPS-induced NF-κB/AP-1 reporter (secreted alkaline phosphatase) in THP-1Blue cells. The class given is cell-based, human. The conditions noted are these: 250 ng/mL LPS, N.A.: not active at the highest tested concentration (50 μM), read-out: AP Production (THP-1 Cells) IC50. As for the experimental part:
Human THP-1Blue monocytic cells stably transfected with a secreted embryonic alkaline phosphatase gene that is under control of a NF-κB/AP-1-inducible promoter were obtained from InvivoGen (San Diego, CA, USA). These cells were cultured in RPMI 1640 medium (Mediatech Inc., Herndon, VA, USA) containing 10% (v/v) fetal bovine serum (FBS), 100 μg/mL streptomycin, 100 U/mL penicillin, 100 μg/mL phleomycin (Zeocin), and 10 μg/mL blasticidin S (all from Sigma-Aldrich, St. Louis, MO, USA).
After incubation of THP-1Blue cells (2 × 10^5 cells/well) with test compounds or control DMSO (1% final concentration) for 30 min, 250 ng/mL of lipopolysaccharide (LPS; from Escherichia coli strain 0111:B4) was added, and the cells were incubated for 24 h. Secreted alkaline phosphatase activity was assessed in the cell supernatants using the QUANTI-Blue mix (InvivoGen; absorbance at 655 nm) and compared with positive controls treated with LPS alone. Compound concentrations that inhibited 50% of the NF-κB reporter activity (IC50) were determined.

The next experiment addresses T1, DAPK1 (Homo sapiens, UniProt P53355).
T1 construct: purchased Eurofins Pharma Discovery (KINOMEscan)
The experiment is described as follows: KINOMEscan. The class given is binding. The conditions noted are these: for Kd: DAPK1, N.B.: no binding at concentrations up to 30 µM. As for the experimental part:
(§1) Kinase profiling was performed by KINOMEscan (Eurofins Pharma Discovery, San Diego, CA, USA), using a panel of 423 protein kinases, as described previously. Compounds were submitted for dissociation constant (Kd) determination toward several target kinases using KINOMEscan. […] Binding reactions were performed at room temperature for 1 h, and the fraction of kinase not bound to the test compound was determined by capture with an immobilized affinity ligand and quantified by quantitative polymerase chain reaction. The primary screening at fixed concentrations of the compound was performed in duplicate. For dissociation constant Kd determination, a 12-point half-log dilution series (a maximum concentration of 33 μM) was used.

The target in another experiment is T2, DAPK3 (Homo sapiens, UniProt O43293).
T2 construct: purchased Eurofins Pharma Discovery (KINOMEscan)
In words: KINOMEscan. The conditions noted are these: for Kd: DAPK3, N.B.: no binding at concentrations up to 30 µM. The class given is binding. How it is done:
as §1

The target in the next experiment is T3, DYRK1B (Homo sapiens, UniProt Q9Y463).
T3 construct: purchased Eurofins Pharma Discovery (KINOMEscan)
The experiment is described as follows: KINOMEscan. The class given is binding. How it is done:
as §1

The target in a further experiment is T4, HIPK2 (Homo sapiens, UniProt Q9H2X6).
T4 construct: purchased Eurofins Pharma Discovery (KINOMEscan)
The experiment is described as follows: KINOMEscan. The class given is binding. The conditions noted are these: for Kd: HIPK2, N.B.: no binding at concentrations up to 30 µM. As for the experimental part:
as §1

In another experiment the target is T5, IRAK1 (Homo sapiens, UniProt P51617).
T5 construct: purchased Eurofins Pharma Discovery (KINOMEscan)
The experiment is described as follows: KINOMEscan. The class given is binding. As for the experimental part: as §1

In the next experiment the target is T6, NEK10 (Homo sapiens, UniProt Q6ZWH5).
T6 construct: purchased Eurofins Pharma Discovery (KINOMEscan)
T6 sequence (Q6ZWH5 1-1172): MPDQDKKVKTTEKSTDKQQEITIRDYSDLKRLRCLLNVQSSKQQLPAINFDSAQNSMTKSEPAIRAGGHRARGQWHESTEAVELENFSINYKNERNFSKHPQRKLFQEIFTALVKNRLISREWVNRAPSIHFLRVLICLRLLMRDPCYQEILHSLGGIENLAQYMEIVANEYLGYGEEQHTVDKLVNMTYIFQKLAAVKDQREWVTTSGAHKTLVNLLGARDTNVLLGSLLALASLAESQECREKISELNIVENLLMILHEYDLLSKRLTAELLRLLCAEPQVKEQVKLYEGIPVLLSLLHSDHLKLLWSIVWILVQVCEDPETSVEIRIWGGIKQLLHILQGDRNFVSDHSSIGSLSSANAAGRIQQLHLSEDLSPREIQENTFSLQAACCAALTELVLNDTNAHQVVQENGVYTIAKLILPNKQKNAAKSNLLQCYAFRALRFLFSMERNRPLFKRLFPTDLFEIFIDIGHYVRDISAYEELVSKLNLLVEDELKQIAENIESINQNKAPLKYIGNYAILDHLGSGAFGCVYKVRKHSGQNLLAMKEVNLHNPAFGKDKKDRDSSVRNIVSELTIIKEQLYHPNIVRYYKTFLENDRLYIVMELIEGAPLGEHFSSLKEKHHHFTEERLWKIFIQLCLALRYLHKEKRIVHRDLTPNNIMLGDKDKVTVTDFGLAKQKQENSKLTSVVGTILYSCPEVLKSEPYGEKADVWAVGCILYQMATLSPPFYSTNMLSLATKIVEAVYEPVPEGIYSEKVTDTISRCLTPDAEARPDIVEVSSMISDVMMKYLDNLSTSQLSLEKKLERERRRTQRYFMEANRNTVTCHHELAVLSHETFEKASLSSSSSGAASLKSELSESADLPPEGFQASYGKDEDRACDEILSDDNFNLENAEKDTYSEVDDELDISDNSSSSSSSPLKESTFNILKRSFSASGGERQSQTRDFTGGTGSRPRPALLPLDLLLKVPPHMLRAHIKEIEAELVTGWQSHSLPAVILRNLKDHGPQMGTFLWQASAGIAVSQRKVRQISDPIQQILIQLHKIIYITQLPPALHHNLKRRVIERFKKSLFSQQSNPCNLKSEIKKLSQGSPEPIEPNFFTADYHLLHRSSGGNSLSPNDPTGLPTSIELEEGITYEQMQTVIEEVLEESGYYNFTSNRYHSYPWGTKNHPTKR
In words: KINOMEscan. The class given is binding. The conditions noted are these: for Kd: NEK10, N.B.: no binding at concentrations up to 30 µM. As for the experimental part: as §1

For a further experiment, the target named is T7, CAMK2B (Homo sapiens, UniProt Q13554).
T7 construct: purchased Eurofins DiscoverX KINOMEscan
The experiment is described as follows: KINOMEscan. The class given is binding. As for the experimental part:
as §1

Another experiment deals with T8, CDKL2 (Homo sapiens, UniProt Q92772).
T8 construct: purchased Eurofins DiscoverX KINOMEscan
The experiment is described as follows: KINOMEscan. The class given is binding. As for the experimental part:
as §1

A further experiment concerns the target T9, CHEK2 (Homo sapiens, UniProt O96017).
T9 construct: purchased Eurofins DiscoverX KINOMEscan
In words: KINOMEscan. The class given is binding. How it is done:
as §1

Another experiment deals with T10, CTK (Homo sapiens, UniProt P42679).
T10 construct: purchased Eurofins DiscoverX KINOMEscan
The experiment is described as follows: KINOMEscan. The class given is binding. As for the experimental part:
as §1

The target of a further experiment is T11, LZK (Homo sapiens, UniProt O43283).
T11 construct: purchased Eurofins DiscoverX KINOMEscan
The experiment is described as follows: KINOMEscan. The class given is binding. How it is done: as §1

The target in a further experiment is T12, NDR2 (Homo sapiens, UniProt Q9Y2H1).
T12 construct: purchased Eurofins DiscoverX KINOMEscan
In words: KINOMEscan. The class given is binding. How it is done:
as §1

The target in a further experiment is T13, PRP4 (Homo sapiens, UniProt Q13523).
T13 construct: purchased Eurofins DiscoverX KINOMEscan
In words: KINOMEscan. The class given is binding. How it is done:
as §1

The mark [2] stands for this setting: DYRK1B, N.B.: no binding at concentrations up to 30 µM.
[3] abbreviates: IRAK1, N.B.: no binding at concentrations up to 30 µM.

Read-outs that look alike come from different tables or passages of the source.

T2 sequence (O43293 whole entry): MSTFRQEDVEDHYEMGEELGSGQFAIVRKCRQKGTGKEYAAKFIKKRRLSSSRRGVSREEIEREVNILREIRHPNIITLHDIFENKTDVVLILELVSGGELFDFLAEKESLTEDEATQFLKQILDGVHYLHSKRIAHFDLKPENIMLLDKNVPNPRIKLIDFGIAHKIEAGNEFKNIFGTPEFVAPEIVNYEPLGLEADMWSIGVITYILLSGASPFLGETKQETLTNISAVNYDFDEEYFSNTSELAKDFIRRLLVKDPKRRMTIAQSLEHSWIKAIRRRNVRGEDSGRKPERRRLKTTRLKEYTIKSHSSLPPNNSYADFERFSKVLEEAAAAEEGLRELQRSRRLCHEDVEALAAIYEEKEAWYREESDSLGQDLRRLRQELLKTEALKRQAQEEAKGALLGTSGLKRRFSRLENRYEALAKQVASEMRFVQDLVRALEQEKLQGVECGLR
T1 sequence (P53355 whole entry): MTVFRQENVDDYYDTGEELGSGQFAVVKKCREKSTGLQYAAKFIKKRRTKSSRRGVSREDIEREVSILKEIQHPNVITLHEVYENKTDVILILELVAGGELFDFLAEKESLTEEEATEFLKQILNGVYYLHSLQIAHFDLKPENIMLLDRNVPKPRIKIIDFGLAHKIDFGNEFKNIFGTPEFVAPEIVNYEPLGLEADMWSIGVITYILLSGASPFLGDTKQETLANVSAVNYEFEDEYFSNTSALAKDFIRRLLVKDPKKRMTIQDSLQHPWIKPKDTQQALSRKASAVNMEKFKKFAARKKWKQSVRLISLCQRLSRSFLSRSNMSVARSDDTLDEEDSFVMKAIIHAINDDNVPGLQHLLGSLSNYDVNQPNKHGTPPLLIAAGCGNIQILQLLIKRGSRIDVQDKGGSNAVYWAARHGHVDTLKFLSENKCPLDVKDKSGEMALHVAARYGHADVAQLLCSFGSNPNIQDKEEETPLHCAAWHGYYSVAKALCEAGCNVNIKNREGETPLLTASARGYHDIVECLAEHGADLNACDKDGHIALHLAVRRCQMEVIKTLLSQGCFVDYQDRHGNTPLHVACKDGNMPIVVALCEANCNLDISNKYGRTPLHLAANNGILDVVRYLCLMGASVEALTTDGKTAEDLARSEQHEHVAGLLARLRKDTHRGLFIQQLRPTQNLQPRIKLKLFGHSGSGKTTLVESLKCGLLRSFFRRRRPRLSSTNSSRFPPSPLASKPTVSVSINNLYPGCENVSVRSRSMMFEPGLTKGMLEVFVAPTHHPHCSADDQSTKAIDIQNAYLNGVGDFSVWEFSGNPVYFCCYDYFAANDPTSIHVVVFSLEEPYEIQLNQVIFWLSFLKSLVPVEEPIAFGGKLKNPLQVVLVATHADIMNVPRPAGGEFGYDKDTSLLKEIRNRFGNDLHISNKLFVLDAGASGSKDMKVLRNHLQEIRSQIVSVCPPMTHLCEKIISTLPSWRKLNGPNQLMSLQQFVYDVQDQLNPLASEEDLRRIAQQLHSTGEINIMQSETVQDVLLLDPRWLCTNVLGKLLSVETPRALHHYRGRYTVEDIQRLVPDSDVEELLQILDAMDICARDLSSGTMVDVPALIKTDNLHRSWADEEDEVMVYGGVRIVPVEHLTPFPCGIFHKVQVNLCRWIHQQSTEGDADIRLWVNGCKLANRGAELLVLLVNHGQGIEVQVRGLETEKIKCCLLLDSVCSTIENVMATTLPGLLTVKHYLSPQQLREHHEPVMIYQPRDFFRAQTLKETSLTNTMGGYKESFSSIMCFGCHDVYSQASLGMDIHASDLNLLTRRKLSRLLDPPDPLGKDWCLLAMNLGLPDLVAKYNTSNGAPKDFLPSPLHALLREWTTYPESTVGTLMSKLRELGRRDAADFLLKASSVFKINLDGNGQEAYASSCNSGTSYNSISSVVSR
T3 sequence (Q9Y463 whole entry): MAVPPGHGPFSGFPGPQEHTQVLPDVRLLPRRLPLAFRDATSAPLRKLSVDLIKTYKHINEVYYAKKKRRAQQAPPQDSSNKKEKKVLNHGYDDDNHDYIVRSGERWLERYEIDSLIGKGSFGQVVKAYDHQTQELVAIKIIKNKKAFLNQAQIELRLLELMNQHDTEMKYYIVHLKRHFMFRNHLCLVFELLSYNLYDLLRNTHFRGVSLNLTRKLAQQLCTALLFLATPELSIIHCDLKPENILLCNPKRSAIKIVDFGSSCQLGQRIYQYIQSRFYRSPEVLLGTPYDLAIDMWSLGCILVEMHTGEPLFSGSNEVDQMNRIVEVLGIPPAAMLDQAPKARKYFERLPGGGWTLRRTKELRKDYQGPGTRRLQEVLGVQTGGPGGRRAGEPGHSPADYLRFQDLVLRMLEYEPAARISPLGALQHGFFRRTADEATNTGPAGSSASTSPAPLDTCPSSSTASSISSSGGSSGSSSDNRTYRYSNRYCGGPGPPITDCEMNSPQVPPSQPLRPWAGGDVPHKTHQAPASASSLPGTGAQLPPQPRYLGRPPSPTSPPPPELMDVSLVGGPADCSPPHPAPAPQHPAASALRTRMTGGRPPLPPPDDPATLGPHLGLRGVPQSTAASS
T5 sequence (P51617 whole entry): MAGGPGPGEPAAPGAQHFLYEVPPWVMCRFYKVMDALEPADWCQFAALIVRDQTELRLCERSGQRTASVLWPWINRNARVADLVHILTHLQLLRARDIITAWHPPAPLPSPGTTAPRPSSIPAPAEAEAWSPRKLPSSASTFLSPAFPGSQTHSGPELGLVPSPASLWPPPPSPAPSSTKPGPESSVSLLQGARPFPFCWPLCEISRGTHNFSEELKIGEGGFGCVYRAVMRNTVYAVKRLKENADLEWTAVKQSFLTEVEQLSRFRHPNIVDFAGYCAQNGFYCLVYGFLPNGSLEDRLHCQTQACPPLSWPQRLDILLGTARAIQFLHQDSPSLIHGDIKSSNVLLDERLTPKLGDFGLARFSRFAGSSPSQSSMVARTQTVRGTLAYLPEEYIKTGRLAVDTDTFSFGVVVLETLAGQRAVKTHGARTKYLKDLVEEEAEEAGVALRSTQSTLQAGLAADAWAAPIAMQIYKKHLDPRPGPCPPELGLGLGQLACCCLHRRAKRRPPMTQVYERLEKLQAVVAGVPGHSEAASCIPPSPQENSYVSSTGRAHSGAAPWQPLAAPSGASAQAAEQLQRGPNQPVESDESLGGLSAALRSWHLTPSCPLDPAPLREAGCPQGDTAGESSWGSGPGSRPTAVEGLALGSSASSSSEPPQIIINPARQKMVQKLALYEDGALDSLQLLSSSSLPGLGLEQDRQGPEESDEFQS
T4 sequence (Q9H2X6 whole entry): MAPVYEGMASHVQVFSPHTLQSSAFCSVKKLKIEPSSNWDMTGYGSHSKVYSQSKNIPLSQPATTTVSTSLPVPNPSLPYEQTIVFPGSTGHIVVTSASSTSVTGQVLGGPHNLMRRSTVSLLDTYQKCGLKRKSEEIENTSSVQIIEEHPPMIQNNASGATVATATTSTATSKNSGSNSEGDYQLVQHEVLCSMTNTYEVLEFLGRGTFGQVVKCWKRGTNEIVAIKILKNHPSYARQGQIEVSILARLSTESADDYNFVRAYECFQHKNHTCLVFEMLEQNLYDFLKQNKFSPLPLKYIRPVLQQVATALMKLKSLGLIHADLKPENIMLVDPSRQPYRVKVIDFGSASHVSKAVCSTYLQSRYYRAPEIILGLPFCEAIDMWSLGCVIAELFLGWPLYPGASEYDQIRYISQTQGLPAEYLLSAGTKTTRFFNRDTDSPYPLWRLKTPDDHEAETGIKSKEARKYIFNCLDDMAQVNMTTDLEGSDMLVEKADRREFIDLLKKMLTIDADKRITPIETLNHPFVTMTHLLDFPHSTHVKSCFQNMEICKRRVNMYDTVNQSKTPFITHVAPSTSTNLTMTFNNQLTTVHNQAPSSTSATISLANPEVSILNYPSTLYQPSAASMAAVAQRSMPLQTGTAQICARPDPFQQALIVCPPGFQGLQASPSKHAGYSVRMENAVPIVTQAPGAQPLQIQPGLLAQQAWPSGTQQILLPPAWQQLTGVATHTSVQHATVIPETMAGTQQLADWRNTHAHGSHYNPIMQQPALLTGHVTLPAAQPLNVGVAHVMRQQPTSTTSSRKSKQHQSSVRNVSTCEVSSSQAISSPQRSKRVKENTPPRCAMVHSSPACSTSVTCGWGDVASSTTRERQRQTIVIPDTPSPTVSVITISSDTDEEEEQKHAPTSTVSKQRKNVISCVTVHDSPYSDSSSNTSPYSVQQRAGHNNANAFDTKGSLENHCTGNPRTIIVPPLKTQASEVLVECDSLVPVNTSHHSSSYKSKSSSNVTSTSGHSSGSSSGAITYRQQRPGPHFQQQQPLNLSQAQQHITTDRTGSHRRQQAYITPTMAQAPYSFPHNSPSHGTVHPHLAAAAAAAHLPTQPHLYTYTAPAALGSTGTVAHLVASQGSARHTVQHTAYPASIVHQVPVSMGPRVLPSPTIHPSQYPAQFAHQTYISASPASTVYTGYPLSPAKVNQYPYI
T10 sequence (P42679 whole entry): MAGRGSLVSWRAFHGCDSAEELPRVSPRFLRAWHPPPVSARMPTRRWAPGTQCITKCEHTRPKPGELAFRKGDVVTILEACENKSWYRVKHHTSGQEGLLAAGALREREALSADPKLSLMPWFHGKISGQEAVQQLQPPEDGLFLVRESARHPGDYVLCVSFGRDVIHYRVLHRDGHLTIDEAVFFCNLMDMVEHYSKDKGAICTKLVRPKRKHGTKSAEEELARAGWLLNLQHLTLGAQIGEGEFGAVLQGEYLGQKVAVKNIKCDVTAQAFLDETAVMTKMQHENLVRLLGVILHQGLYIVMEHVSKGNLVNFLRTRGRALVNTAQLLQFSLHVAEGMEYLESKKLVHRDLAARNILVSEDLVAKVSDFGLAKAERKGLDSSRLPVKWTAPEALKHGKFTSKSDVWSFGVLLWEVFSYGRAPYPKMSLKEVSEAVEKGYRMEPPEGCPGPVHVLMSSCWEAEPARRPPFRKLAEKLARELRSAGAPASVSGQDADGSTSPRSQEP

Regarding `O=C1Nc2c(ccc3c2CCCC3)C1=NO` [Compound 5a, 3-(Hydroxyimino)-1,3,6,7,8,9-hexahydro-2H-benzo[g]indol-2-one], the IC50 in [1] (24 h) is 6000 ± 1300 nM; in experiment [1] (Homo sapiens, THP-1, 24 h) it was under 6100 nM. For the same compound, the Kd on DAPK1 was determined as 13500 ± 700 nM; at DAPK3 it was 20500 ± 3500 nM; at HIPK2, 730 ± 640 nM; on NEK10, 3200 ± 1000 nM. Besides, the “Kd (µM)” value on DYRK1B (setting [2]) and at IRAK1 (setting [3]) was “N.B” throughout.
For the compound `O=C1Nc2c(cc([N+](=O)[O-])c3c2CCCC3)C1=NO` [Compound 5d, 3-(Hydroxyimino)-5-nitro-1,3,6,7,8,9-hexahydro-2H-benzo[g]indol-2-one], the IC50 in [1] (24 h) is 5500 ± 1400 nM; in experiment [1] (Homo sapiens, THP-1, 24 h), under 6100 nM. For the same compound, the inhibition at 10 µM at CAMK2B came to 70%; at CDKL2 it was 13%; at CHEK2, 48%; on CTK, 0%; on DAPK1 (10 μM) it was 96.3%; at DAPK3 (10 μM) it was 98.5%. For the same compound, the inhibition at 10 µM on DYRK1B (10 μM) stood at 96.4%; at HIPK2 (10 μM), 99.7%; at IRAK1 (10 μM), 99.2%; on LZK, 0%; on NDR2 it was 13%; at NEK10 (10 μM), 100%. Also, at PRP4, the inhibition at 10 µM is 38%. Also, the Kd on DAPK1 is 290 ± 20 nM; at DAPK3, 590 ± 28 nM; at DYRK1B (setting [2]) it was 470 ± 20 nM; at HIPK2, 295 ± 92 nM; at IRAK1 (setting [3]) it was 670 ± 113 nM; at NEK10, 660 ± 71 nM.
